Results: US20240415918A1, “Polypeptide and its use as a CCK receptor agonist/antagonist” (Centre for Regenerative Medicine & Health, Hong Kong …, priority 2021, published 2024)
*1 amine or outer side, *2 acyl side, *3 side chain or, on linkers, in order; H or OH if unused. Where a SMILES comes first, the peptide text is derived from it. [ ]: non-standard residue; d: D form. Trp(5-OH) = N[C@@H](Cc1c[nH]c2ccc(O)cc12)C(=O)O; sY = N[C@@H](Cc1ccc(OS(=O)(=O)O)cc1)C(=O)O; Phe(3-Br) = N[C@@H](Cc1cccc(Br)c1)C(=O)O; NMeNle = CCCC[C@H](NC)C(=O)O; Suc = O=C(CCC(=O)[*:2])[*:1]; Nle = CCCC[C@H](N)C(=O)O

Columns and labels:
[1] = biological target: T1, CCK-B receptors (CHO-CCK) (Homo sapiens, UniProt P32239); assay: Calcium flux (Fluo-8) agonist test on CHO-CCK model cells; assay type: cell-based; settings: for EC50: CHO-CCK cells; for Agonistic Activity (%) at 10 μM: compound at 10 μM, percentage of signal of 20 nM CCK8 alone
T1 construct: expressed in transfected cells; host or cells: CHO (CHO-CCK model cells)
T1 sequence (P32239 1-447): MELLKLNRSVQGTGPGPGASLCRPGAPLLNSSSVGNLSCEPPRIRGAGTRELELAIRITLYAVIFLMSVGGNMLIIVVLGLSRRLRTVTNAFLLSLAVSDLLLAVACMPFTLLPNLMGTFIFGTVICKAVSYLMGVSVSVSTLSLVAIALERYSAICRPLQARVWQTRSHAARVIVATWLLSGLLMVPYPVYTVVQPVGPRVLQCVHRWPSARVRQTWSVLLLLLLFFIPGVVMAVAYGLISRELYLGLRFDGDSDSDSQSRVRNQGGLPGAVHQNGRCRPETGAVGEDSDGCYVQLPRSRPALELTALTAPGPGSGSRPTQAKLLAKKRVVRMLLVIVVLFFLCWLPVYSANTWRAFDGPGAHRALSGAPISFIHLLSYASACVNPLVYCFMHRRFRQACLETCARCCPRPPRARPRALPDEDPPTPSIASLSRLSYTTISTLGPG
Procedure, shortened: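 Agonist-mode Fluo-8 calcium flux read on CHO-CCK cells after dye loading 30 min at 37 °C plus 30 min at room temperature.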

[2] = biological target: T1, CCK-B receptors (CHO-CCK); assay: Calcium flux (Fluo-8) antagonist test on CHO-CCK model cells in presence of CCK8; assay type: cell-based
[3] = Fluo-8 calcium flux, 100% control = 20 nM CCK8
[4] = in presence of 10 nM CCK8, bound in μM
[5] = compound alone, 100% = 20 nM CCK8
[6] = compound together with 10 nM CCK8
[7] = Fluo-8 calcium flux, bound in μM
[8] = compound together with 10 nM CCK8, bound in μM

Compound | EC50 [1, 3] [µM] | EC50 ([2]; in presence of 10 nM CCK8) [µM] | EC50 [1, 5] [µM] | Agonistic Activity (%) at 10 μM [1] [%] | EC50 [2, 6] [µM] | other results
CCCC[C@H](NC(=O)[C@@H](Cc1c[nH]c2ccccc12)NC(C)=O)C(=O)N[C@@H](CC(=O)O)C(=O)N[C@@H](Cc1c[nH]c2ccc(O)cc12)C(N)=O [HT-226, Ac-D-Trp-Nle-Asp-(5-HTP)-NH2] (Ac-[dW][Nle]D[Trp(5-OH)]-NH2) | 14.2 | – | – | – | – | EC50 [2, 4]: > 10 µM
CSCC[C@H](NC(=O)[C@@H](Cc1c[nH]c2ccccc12)NC(=O)[C@H](CCC(=O)O)NC(=O)[C@H](CC(C)C)NC(=O)CNC(=O)[C@H](Cc1c[nH]cn1)NC(=O)[C@H](CO)NC(=O)CNC(=O)[C@H](CCCCN)NC(=O)[C@H](CCCNC(=N)N)NC(=O)[C@H](CCCNC(=N)N)NC(=O)[C@H](Cc1c[nH]cn1)NC(=O)[C@H](CCCCN)NC(=O)[C@@H](NC(C)=O)[C@@H](C)O)C(=O)N[C@@H](CC(=O)O)C(=O)N[C@@H](Cc1cccc(Br)c1)C(N)=O [HT-220] (Ac-TKHRRKGSHGLE[dW]MD[Phe(3-Br)]-NH2) | 8.39 | 2.88 | – | – | – | –
C[S+]([O-])CC[C@H](NC(=O)[C@H](N)Cc1c[nH]c2ccccc12)C(=O)N[C@@H](CC(=O)O)C(=O)N[C@@H](Cc1cccc(Br)c1)C(N)=O (stereo partly drawn) [HT-46, D-Trp-Met(O)-Asp-Phe(3-Br)-NH2] | – | – | 3.8 | 53.69 | 6.24 | –
CSCC[C@H](NC(=O)[C@H](Cc1ccc(OS(=O)(=O)O)cc1)NC(=O)[C@H](CC(=O)O)NC(C)=O)C(=O)NCC(=O)N[C@@H](Cc1c[nH]c2ccccc12)C(N)=O [HT-216, Ac-Asp-Tyr(SO3H)-Met-Gly-Trp-NH2] (Ac-D[sY]MGW-NH2) | 0.588 | 1.44 | – | – | – | –
CCCC[C@H](NC(=O)[C@@H](Cc1c(C)[nH]c2ccccc12)NC(C)=O)C(=O)N[C@@H](CCC(=O)O)C(=O)N[C@@H](Cc1c(C)[nH]c2ccccc12)C(N)=O [HT-248, Ac-(2-Me-Trp)-Nle-Glu-(2-Me-Trp)-NH2] | 0.0331 | 0.47 | – | – | – | –
CCCC[C@H](NC(=O)[C@@H](Cc1c[nH]c2ccccc12)N(C)C(=O)CNC(=O)OCC1c2ccccc2-c2ccccc21)C(=O)N[C@@H](CC(=O)O)C(=O)N[C@@H](Cc1cccc(Br)c1)C(N)=O [HT-251, Fmoc-Gly-(N-Me-Trp)-Nle-Asp Phe(3-Br)-NH2] | 0.00592 | 1.61 | – | – | – | –
CCCC[C@H](NC(=O)[C@@H](Cc1c(C)[nH]c2ccccc12)NC(C)=O)C(=O)N[C@@H](CCC(=O)O)C(=O)N[C@@H](Cc1cccc(Br)c1)C(N)=O [HT-244, Ac-(2-Me-Trp)-Nle-Glu-Phe(3-Br)-NH2] | 7.32 | 1.36 | – | – | – | –
CSCC[C@H](NC(=O)[C@@H](Cc1c[nH]c2ccccc12)NC(C)=O)C(=O)N[C@@H](CC(C)C)C(=O)N[C@@H](Cc1cccc(Br)c1)C(N)=O [HT-190, Ac-D-Trp-Met-Leu-Phe(3-Br)-NH2] (Ac-[dW]ML[Phe(3-Br)]-NH2) | – | – | 4.75 | – | 6.16 | –
CSCC[C@H](NC(=O)[C@H](Cc1c[nH]c2ccccc12)NC(C)=O)C(=O)N[C@@H](CC(=O)O)C(=O)N[C@@H](CC(C)C)C(N)=O [HT-192, Ac-Trp-Met-Asp-Leu-NH2] (Ac-WMDL-NH2) | – | – | – | – | 8.76 | EC50 ([1]; compound alone, bound in μM): > 10 µM
CSCC[C@H](NC(=O)[C@H](Cc1c[nH]c2ccccc12)NC(C)=O)C(=O)N[C@@H](CC(=O)O)C(=O)N[C@@H](Cc1cccc(Br)c1)C(=O)N[C@@H](C)C(N)=O [HT-201, Ac-D-Trp-Met-Asp-Phe(3-Br)-Ala-NH2] | 4.29 | 3.6 | – | – | – | –
CCCC[C@H](NC(=O)[C@@H](Cc1cn(C)c2ccccc12)NC(C)=O)C(=O)N[C@@H](CC(=O)O)C(=O)N[C@@H](Cc1c(C)[nH]c2ccccc12)C(N)=O [HT-233, Ac-(1-Me-Trp)-Nle-Asp-(2-Me-Trp)-NH2] | – | 3.65 | – | – | – | EC50 [1, 7]: > 10 µM
CCCC[C@H](NC(=O)[C@H](Cc1c[nH]c2ccccc12)NC(C)=O)C(=O)N[C@@H](CC(=O)O)C(=O)N[C@@H](Cc1c(C)[nH]c2ccccc12)C(N)=O [HT-229, Ac-D-Trp-Nle-Asp-(2-Me-Trp)-NH2] | 8.2 | – | – | – | – | EC50 [2, 4]: > 10 µM
CCCC[C@@H](C(=O)N[C@@H](CC(=O)O)C(=O)N[C@@H](Cc1cccc(Br)c1)C(N)=O)N(C)C(=O)[C@@H](Cc1c[nH]c2ccccc12)NC(C)=O [HT-179, Ac-D-Trp-(N-Me-Nle)-Asp-Phe(3-Br)-NH2] (Ac-[dW][NMeNle]D[Phe(3-Br)]-NH2) | – | – | 1.63 | – | – | EC50 [2, 8]: > 10 µM
CSCC[C@H](NC(=O)[C@H](N)Cc1c[nH]c2ccccc12)C(=O)N[C@@H](CC(=O)O)C(=O)N[C@@H](Cc1ccccc1F)C(N)=O [HT-25, D-Trp-Met-Asp-Phe(2-F)-NH2] | – | – | 0.225 | 89.41 | 0.603 | –
CSCC[C@H](NC(=O)[C@H](N)Cc1c[nH]c2ccccc12)C(=O)N[C@@H](CC(=O)O)C(=O)N[C@@H](Cc1ccc(C)cc1)C(N)=O [HT-30, D-Trp-Met-Asp-Phe(4 Me)-NH2] | – | – | 0.0932 | 88.74 | 0.683 | –
CSCC[C@H](NC(=O)[C@@H](Cc1cc2ccccc2[nH]1)NC(=O)[C@@H](N)CCC(=O)O)C(=O)N[C@@H](CC(=O)O)C(=O)N[C@@H](Cc1cccc(Br)c1)C(N)=O [HT-255, Glu-D-Trp-Met-Asp-Phe(3-Br)-NH2] | 0.000569 | 0.0403 | – | – | – | –
CCCC[C@H](NC(=O)[C@@H](Cc1cn(C)c2ccccc12)NC(C)=O)C(=O)N[C@@H](CCC(=O)O)C(=O)N[C@@H](Cc1c(C)[nH]c2ccccc12)C(N)=O [HT-246, Ac-(1-Me-Trp)-Nle-Glu-(2-Me-Trp)-NH2] | – | 2.13 | – | – | – | EC50 [1, 7]: > 10 µM
CCCC[C@H](NC(=O)[C@@H](Cc1c[nH]c2ccccc12)NC(=O)CNC(=O)CCC(=O)O)C(=O)N[C@@H](CC(=O)O)C(=O)N[C@@H](Cc1cccc(Br)c1)C(N)=O [HT-202, (Suc)-Gly-D-Trp-Nle-Asp-Phe(3-Br)-NH2] (Suc-G[dW][Nle]D[Phe(3-Br)]-NH2) | 0.0051 | 0.192 | – | – | – | –
CSCC[C@H](NC(=O)[C@H](N)Cc1c[nH]c2ccccc12)C(=O)N[C@@H](CC(=O)O)C(=O)N[C@@H](Cc1cc(F)c(F)c(F)c1)C(N)=O [HT-40, D-Trp-Met-Asp-Phe(3,4,5-TriF)-NH2] | – | – | 0.078 | 98.25 | 0.244 | –
CS(=O)(=O)CC[C@H](NC(=O)[C@H](N)Cc1c[nH]c2ccccc12)C(=O)N[C@@H](CC(=O)O)C(=O)N[C@@H](Cc1ccccc1F)C(N)=O [HT-59, D-Trp-Met(O2)-Asp-Phe(2-F)-NH2] | – | – | – | 39.73 | 9.22 | –
CSCC[C@H](NC(=O)[C@H](N)Cc1c[nH]c2ccccc12)C(=O)N[C@@H](CC(=O)O)C(=O)N[C@@H](Cc1cccc(Cl)c1)C(N)=O [HT-26, D-Trp-Met-Asp-Phe(3-Cl)-NH2] | – | – | 0.0784 | 85.75 | 0.635 | –
CSCC[C@H](NC(=O)[C@@H](Cc1c[nH]c2ccccc12)NC(C)=O)C(=O)N[C@@H](CCCCN)C(=O)N[C@@H](Cc1cccc(Br)c1)C(N)=O [HT-188, Ac-D-Trp-Met-Lys-Phe(3-Br)-NH2] (Ac-[dW]MK[Phe(3-Br)]-NH2) | – | – | 1.84 | – | 7.55 | –
CCCC[C@H](NC(=O)[C@H](Cc1c[nH]c2ccccc12)NC(=O)CNC(=O)[C@H](CCCC)NC(C)=O)C(N)=O [HT-213, Ac-Nle-Gly-Trp-Nle-NH2] (Ac-[Nle]GW[Nle]-NH2) | 0.533 | 4.92 | – | – | – | –
CSCC[C@H](NC(=O)[C@H](Cc1c[nH]c2ccccc12)NC(=O)CNC(=O)[C@H](CCSC)NC(C)=O)C(N)=O [HT-210, Ac-Met-Gly-Trp-Met-NH2] (Ac-MGWM-NH2) | 0.398 | 6.45 | – | – | – | –
CSCC[C@H](NC(=O)[C@H](N)Cc1c[nH]c2ccccc12)C(=O)N[C@@H](CC(=O)O)C(=O)N[C@@H](Cc1ccc(I)cc1)C(N)=O [HT-37, D-Trp-Met-Asp-Phe(4-I)-NH2] | – | – | 0.864 | 52.04 | 1.22 | –
C[S+]([O-])CC[C@H](NC(=O)[C@H](N)Cc1c[nH]c2ccccc12)C(=O)N[C@@H](CC(=O)O)C(=O)N[C@@H](Cc1ccccc1F)C(N)=O (stereo partly drawn) [HT-42, D-Trp-Met(O)-Asp-Phe(2-F)-NH2] | – | – | – | 17.97 | 8.41 | –
CSCC[C@H](NC(=O)[C@H](Cc1ccc(OS(=O)(=O)O)cc1)NC(C)=O)C(=O)NCC(=O)N[C@@H](Cc1c[nH]c2ccccc12)C(N)=O [HT-209, Ac-Tyr(SO3H)-Met-Gly-Trp-NH2] (Ac-[sY]MGW-NH2) | – | 2.15 | – | – | – | EC50 [1, 7]: > 10 µM
COC(=O)C[C@H](NC(=O)[C@H](CCSC)NC(=O)[C@H](N)Cc1c[nH]c2ccccc12)C(=O)N[C@@H](Cc1cccc(F)c1)C(N)=O [HT-78, D-Trp-Met-Asp(Ome)-Phe(3-F)-NH2] | – | – | – | 20.83 | – | EC50 [2, 8]: ~10 µM
CSCC[C@H](NC(=O)[C@@H](Cc1ccccc1)NC(C)=O)C(=O)N[C@@H](CC(=O)O)C(=O)N[C@@H](Cc1cccc(Br)c1)C(N)=O [HT-180, Ac-D-Phe-Met-Asp-Phe(3-Br)-NH2] (Ac-[dF]MD[Phe(3-Br)]-NH2) | – | – | 0.447 | – | 3.56 | –
